Source: PubChem BioAssay (NCI)
Where “and” joins values, the source holds several entries; their conditions need not be identical. Equal entries are not always repeated.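 All cell lines were grown in 96-well plates and treated with compound for 48 hours. GI50: concentration for 50% inhibition of growth. TGI denotes the concentration required for complete inhibition of growth.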

What was measured:
Experiment in all cases: growth of human tumour cells (NCI), 48 h
HT29 colon = tested on: HT29 colon
K-562 leukemia = tested on: K-562 leukemia
LOX IMVI melanoma = tested on: LOX IMVI melanoma
NCI-H23 lung = tested on: NCI-H23 lung
RPMI-8226 leukemia = tested on: RPMI-8226 leukemia
SF-539 CNS = tested on: SF-539 CNS
SK-MEL-5 melanoma = tested on: SK-MEL-5 melanoma
SW-620 colon = tested on: SW-620 colon
T-47D breast = tested on: T-47D breast
RXF 393 renal = tested on: RXF 393 renal

| Structure (SMILES) | TGI (HT29 colon) | TGI (K-562 leukemia) | TGI (LOX IMVI melanoma) | TGI (NCI-H23 lung) | TGI (RPMI-8226 leukemia) | TGI (SF-539 CNS) | TGI (SK-MEL-5 melanoma) | TGI (SW-620 colon) | GI50 (K-562 leukemia) | GI50 (T-47D breast) | TGI (T-47D breast) | GI50 (HT29 colon) | GI50 (LOX IMVI melanoma) | GI50 (NCI-H23 lung) | GI50 (RPMI-8226 leukemia) | GI50 (SF-539 CNS) | GI50 (SK-MEL-5 melanoma) | GI50 (SW-620 colon) | GI50 (RXF 393 renal) | TGI (RXF 393 renal) |
| --- | --- | --- | --- | --- | --- | --- | --- | --- | --- | --- | --- | --- | --- | --- | --- | --- | --- | --- | --- | --- |
| Cc1ccc(NC(=O)CC(=O)n2nc(-c3ccccc3)c(N=Nc3ccc(Cl)cc3)c2-c2ccccc2)cc1 | 40.4 µM | 47.1 µM | 29.9 µM | > 100 µM | 47.8 µM | 85.6 µM | > 100 µM | 31 µM |  |  |  |  |  |  |  |  |  |  |  |  |
| CO[C@H]1[C@H](O)[C@H](O[C@H]2CC[C@@]3(C)[C@H](CC[C@@H]4[C@@H]3CC[C@]3(C)[C@@H](C5=CC(=O)OC5)CC[C@]43O)C2)O[C@@H](C)[C@@H]1O | 0.00148 µM | 0.0647 µM | 0.00271 µM and < 0.0111 µM | 0.00127 µM | 0.00542 µM | 0.00111 µM | 0.00194 µM | 0.00341 µM | 0.00062 µM | 0.00395 µM | 0.0194 µM |  |  |  |  |  |  |  |  |  |
| CC12O[C@H](c3ccccc3)[C@H](c3ccccc3)N1C(=O)C1(C(=O)OCc3ccccc3)CC12 (some centres not stated) | > 100 µM | > 100 µM | > 100 µM |  |  |  | > 100 µM | > 100 µM |  |  |  |  |  |  |  |  |  |  |  |  |
| COc1ccc(/C=C(/C(=O)N2CCCC2)c2cc(OC)c(OC)c(OC)c2)cc1N | > 100 µM | > 100 µM | > 100 µM | > 100 µM | > 100 µM | 6.75 µM | > 100 µM | > 100 µM | 0.926 µM | 3.91 µM | > 100 µM | 2.3 µM | 3.77 µM | 4.61 µM | 4.05 µM | 1.9 µM | 2.51 µM | 2.48 µM |  |  |
| O=C([O-])c1ccc2c(c1)-c1nc-2nc2[n-]c(nc3nc(nc4[n-]c(n1)c1ccc(C(=O)[O-])cc41)-c1cc(C(=O)[O-])ccc1-3)c1ccc(C(=O)[O-])cc21.[Fe+2] | > 50 µM | > 33.7 µM | > 42.9 µM | > 50 µM | > 36.4 µM | > 50 µM | > 50 µM | > 31.5 µM | > 23 µM |  |  | > 50 µM | 20.7 µM | > 50 µM | > 27.3 µM | > 29.5 µM | > 50 µM | > 21.7 µM | > 50 µM | > 50 µM |
| N/N=C1\c2ccccc2C2/C(=N\N)c3ccccc3C12 (configuration not stated) | > 100 µM | > 100 µM | > 100 µM | > 100 µM | > 100 µM | > 100 µM | > 100 µM | > 100 µM |  |  |  |  |  |  |  |  |  |  |  | > 100 µM |
| O=C1CC2CCCCC2=C1O (configuration not stated) |  | > 100 µM | > 100 µM | > 100 µM | > 100 µM | > 100 µM | > 100 µM | > 100 µM |  |  |  |  |  |  |  |  |  |  |  | > 100 µM |
| Cc1ccc(S(=O)(=O)Oc2ccc3c4c(c(=O)oc3c2)CCCCC4)cc1 | > 100 µM | > 100 µM | > 100 µM | > 100 µM | > 100 µM | > 100 µM | > 100 µM |  | 3.51 µM | 4.37 µM | > 100 µM | 4.06 µM | > 100 µM | 8 µM | 4.55 µM | 6.77 µM | 2.75 µM |  |  |  |
| COc1ccc(NC(=O)C(=O)NNC(=O)c2sc(NNC(C)=O)nc2C)c([N+](=O)[O-])c1 | > 100 µM | > 100 µM | > 100 µM | > 100 µM | > 100 µM | > 100 µM | > 100 µM | > 100 µM |  |  |  |  |  |  |  |  |  |  |  |  |
| CC1CCCC(C(O)CC2CC(=O)N(c3ccccc3)C(=O)C2)C1=O (configuration not stated) | > 100 µM | > 100 µM | > 100 µM | > 100 µM | > 100 µM | > 100 µM |  | > 100 µM |  |  |  |  |  |  |  |  |  |  |  | > 100 µM |
| COc1ncc(-c2nc3c(n2C(C)C)[C@H](c2ccc(Cl)cc2)N(c2cc(Cl)cn(C)c2=O)C3=O)c(OC)n1 | > 100 µM |  | > 100 µM | > 100 µM | 87.5 µM | > 100 µM | 24.1 µM | > 100 µM |  | 29.5 µM | > 100 µM | 41.7 µM | 11.2 µM | > 100 µM | 24.5 µM | 64.5 µM | 11.7 µM | 63.7 µM |  |  |
| Cc1c(O)c(=O)ccn1C1OC(CO)C(O)C1O (configuration not stated) | > 100 µM | > 100 µM | > 100 µM |  | > 100 µM |  | > 100 µM | > 100 µM |  |  |  |  |  |  |  |  |  |  |  | > 100 µM |
| Cn1cc2c(n1)c(N/N=C/c1ccccc1)nn1nnnc21 | > 100 µM | > 100 µM | > 100 µM | > 100 µM | > 100 µM | > 100 µM | > 100 µM | > 100 µM |  |  |  |  |  |  |  |  |  |  |  | > 100 µM |
| CCCCn1c2c(c3ccccc3c1=O)C(=O)c1ccccc1-2 | > 100 µM | > 100 µM | > 100 µM | > 100 µM | > 100 µM | > 100 µM | > 100 µM | > 100 µM |  |  | > 100 µM |  |  |  |  |  |  |  |  |  |
| N#C/C(=C/c1cccnc1)C(=O)c1ccccc1 | > 100 µM | > 100 µM | > 100 µM | > 100 µM | > 100 µM | > 100 µM | > 100 µM | > 100 µM |  |  |  |  |  |  |  |  |  |  |  | > 100 µM |
| Cc1cc(N(CCC#N)CCC#N)ccc1/C=C(\NC(=O)/C=C/c1ccccc1)NC(=O)Nc1ccc(Cl)cc1 | > 100 µM | > 100 µM | > 100 µM | > 100 µM | > 100 µM | > 100 µM | > 100 µM | > 100 µM |  |  |  |  |  |  |  |  |  |  |  | 52.6 µM |
| C/C(=N\NC(=O)CC(=O)Nc1ccc(Cl)cc1)c1cc2ccccc2oc1=O | > 100 µM | > 100 µM | > 100 µM | > 100 µM | > 100 µM | > 100 µM | > 100 µM | > 100 µM |  |  |  |  |  |  |  |  |  |  |  | > 100 µM |
| CCCCCCCCCCCCCC/C(C(=O)OC)=C(/O)C(=O)OCC | > 100 µM | > 100 µM | 39.3 µM | > 100 µM | > 100 µM | > 100 µM | > 100 µM | > 100 µM |  |  |  |  |  |  |  |  |  |  |  | > 100 µM |
| N#Cc1c[nH]n2ccnc12 | > 100 µM | > 100 µM |  | > 100 µM |  |  | > 100 µM | > 100 µM |  |  | > 100 µM |  |  |  |  |  |  |  |  |  |
